Results reported in EP0775487A1, “TRIAZINE DERIVATIVE AND MEDICINE” (NIPPON SHINYAKU COMPANY, LIMITED, priority 1994, dated 1996).
Read-outs that look alike come from different tables or passages of the source. Marks after values point to notes of the source that are not given here.

Legend:
[1] = tested on: BCG-LPS-induced fulminant hepatitis; assay: Inhibitory effect on BCG-LPS-induced fulminant hepatitis in mice (antihepatitis effect); assay type: in vivo, BALB/C mice; details: for Number of deaths/number of animals/used: 50 mg/kg orally 1 hour before LPS i.v., deaths at 48 hours, control mortality 80-100%; for inhibition at 50 mg/kg: Mus musculus, po, 50 mg/kg orally, plasma transaminase at hour 4 after LPS
Protocol: The antihepatitis action of the compound of the invention could be confirmed by the following test in mice. This test is the commonest animal test for evaluating the antihepatitis effect of drugs. It is known that the antihepatitis effect evaluated by this test method is highly correlated with the clinical effect in man (Kondo, Y. et al. Chem. Pharm. Bull. 38, 2887-2889, 1990). Method: Six-week-old male BALB/C mice were intravenously dosed with 1 mg of BCG and after 2 weeks, 50 mg/kg of the test drug was administered orally. Then, after 1 hour, 2.5 µg of lipopolysaccharide (LPS) was injected intravenously to induce hepatitis. To find the LPS-associated mortality, the percentage of deaths at 48 hours was calculated. The mortality in the control group was 80-100%. […] However, for reference's sake, blood was drawn from the orbital vein at hour 4 and the plasma transaminase (GOT, GPT) concentrations were determined. As a reference compound, 2,4-diamino-6-(2,5-dichlorophenyl)-1,3,5-triazine was used.

Acute toxicity = assay type: in vivo, Rats (SD strain); details: 1 g/kg orally by gastric gavage, fasted rats, groups of 5
Protocol: Rats of either sex (SD strain, […]) were used in groups of 5. The animals were deprived of food from the previous day (16-18 hours before) and 1 g/kg of the compound of Example 1 was administered orally by gastric gavage. Then, deaths during the subsequent one-week period were recorded.

GST-P-positive lesions = assay: Inhibitory effect on hepatic chemooncogenesis in rats (DEN/AAF/hepatectomy precancerous lesion model, GST-P immunostaining); assay type: in vivo, F344 rats; details: for GST-P^+ area (mm^2/cm^2) mean±S.E. / GST-P^+ foci (N/cm^2) mean±S.E.: 0.01% in chow from week 2 to final day (4-week experiment); for GST-P^+ area (mm^2/cm^2) inhibition (%) / GST-P^+ foci (N/cm^2) inhibition (%): 0.01% in chow, versus own control group
Protocol: Method: Five-week-old male F344 rats (Slc), a precancerous lesion model was constructed using the following protocol in accordance with the method of Solt and Faber (Nature, 263, 702-703, 1976). [formula] • ↑ : DEN 200 mg/kg, i.p. • : 70% hepatectomy • : 0.02% AAF • : Diet or water • ←→ : Drug administration period
Thus, the duration of the experiment being set at 4 weeks, 200 mg/kg of diethylnitrosoamine (hereinafter referred to briefly as DEN) was first administered intraperitoneally. Beginning week 2, drinking water containing 0.02% of 2-acetylaminofluorene (hereinafter referred to briefly as AAF) was given ad libitum. At the beginning of week 3, 70% hepatectomy was performed. The test drug was mixed into the animal chow (F-2, Funabashi Farm) at the concentration of 0.01% and administered from week 2 through the final day of the experiment. The compound of Example 1 was used as the test drug and 2,4-diamino-6-(2,5-dichlorophenyl)-1,3,5-triazine as the reference compound.
On the final day of the experiment, all the animals were sacrificed by cervical dislocation under ether anaesthesia. Immediately a portion of the liver was excised, quick-frozen in dry ice-acetone, and stored until used. From the liver, 8 µm-thick frozen sections were prepared and using Vectastain ABC Kit (Funakoshi Yakuhin), immunostained by the ABC method (an enzyme-labeled antibody method) using anti-glutathione-S-transferase placental form (hereinafter referred to briefly as GST-P) antibody as the primary antibody. Thus, sections were returned to room temperature under anhydrous conditions and immersed in 10 mM phosphate-buffered saline (hereinafter referred to briefly as PBS) at pH 7.2 for 15 minutes. Then, goat normal serum and the primary antibody (a 500-fold dilution, 20 µl) were applied to the section and allowed to react overnight. After the reaction, the section was washed with PBS. Then, anti-rabbit secondary antibody was applied and the reaction was carried out for 30 minutes. After washing with PBS, avidin-biotin complex was applied and allowed to react for 30 minutes. The section was washed with PBS and treated with 0.1% diaminobenzidine (DAB) containing 0.02% of hydrogen peroxide for color development, dehydrated, and sealed.
The number of GST-P-positive lesions per cm^2 liver tissue section was counted under an optical microscope and the area was measured with an image analyzer (SPICCA-II, Japan Avionics). The significance testing of mean values was made by Student's t-test and the result was evaluated at the 5% leval of significance.

[2] = Effect on body weight gain; assay type: in vivo; details: 1,000 mg/kg administered repeatedly (daily), rats
Protocol: The compound of Example 1 was administered to rats daily to investigate its effect on body weight gain.

| Structure (SMILES) | Number of deaths/number of animals/used [1] | inhibition at 50 mg/kg ([1]; read-out: % Inhibition GOT) [%] | inhibition at 50 mg/kg ([1]; read-out: % Inhibition GPT) [%] | deaths during the subsequent one-week period (Acute toxicity) | GST-P^+ area (mm^2/cm^2) mean±S.E. (GST-P-positive lesions) [mm^2/cm^2] | GST-P^+ foci (N/cm^2) mean±S.E. (GST-P-positive lesions) [N/cm^2] | GST-P^+ area (mm^2/cm^2) inhibition (%) (GST-P-positive lesions) | GST-P^+ foci (N/cm^2) inhibition (%) (GST-P-positive lesions) | effect on body weight gain [2] |
| --- | --- | --- | --- | --- | --- | --- | --- | --- | --- |
| Cl.Nc1nc(-c2cc(Cl)ccc2Cl)nc(N2CCC[C@@H]2CO)n1 [Example 33, (R)-2-amino-4-(2,5-dichlorophenyl)-6-(2-hydroxymethyl-1-pyrrolidinyl)-1,3,5-triazine hydrochloride] | 0/18** | 39 | 41 | – | – | – | – | – | – |
| CN(CCO)c1nc(N)nc(-c2cc(Cl)ccc2Cl)n1 [Example 5, 2-Amino-4-(2,5-dichlorophenyl)-6-[N-methyl-N-(2-hydroxyethyl)amino]-1,3,5-triazine] | 0/10** | 43 | 18 | – | – | – | – | – | – |
| Nc1nc(-c2cc(Cl)ccc2Cl)nc(N2CCC(O)C2)n1.O=C(O)/C=C\C(=O)O (stereo not shown) [Example 31, 2-Amino-4-(2,5-dichlorophenyl)-6-(3-hydroxy-1-pyrrolidinyl)-1,3,5-triazine maleate] | 1/18** | 47 | 34 | – | – | – | – | – | – |
| COCCNc1nc(N)nc(-c2cc(Cl)ccc2Cl)n1 [Example 6, 2-Amino-4-(2,5-dichlorophenyl)-6-(2-methoxyethylamino)-1,3,5-triazine] | 2/10** | 34 | 29 | – | – | – | – | – | – |
| Nc1nc(-c2cc(Cl)ccc2Cl)nc(N(CCO)CCO)n1 [Example 1, 2-amino-4-[N,N-bis(2-hydroxyethyl)amino]-6-(2,5-dichlorophenyl)-1,3,5-triazine] | 2/10** | 37 | 17 | no death was found at all | 0.8± 0.2 | 41.5± 5.2 | 48.6 | 28.9 | did not affect body weight gain |
| CNc1nc(N)nc(-c2cc(Cl)ccc2Cl)n1 [Example 2, 2-Amino-4-(2,5-dichlorophenyl)-6-methylamino-1,3,5-triazine] | 0/10** | 46 | 33 | – | – | – | – | – | – |
| CN(C)c1nc(N)nc(-c2cc(Cl)ccc2Cl)n1 [Example 3, 2-Amino-4-(2,5-dichlorophenyl)-6-dimethylamino-1,3,5-triazine] | 0/10** | 37 | 38 | – | – | – | – | – | – |
| Nc1nc(N)nc(-c2cc(Cl)ccc2Cl)n1 [Reference Compound, 2,4-diamino-6-(2,5-dichlorophenyl)-1,3,5-triazine, reference compound] | 0/10* | 21 | -6 | – | 3.6±0.7 | 67.9± 8.7 | 7.7 | 9.7 | – |
| Cl.Cl.NCC1CCN(c2nc(N)nc(-c3cc(Cl)ccc3Cl)n2)C1 (stereo not shown) [Example 62, 2-Amino-4-(2,5-dichlorophenyl)-6-(3-aminomethyl-1-pyrrolidinyl)-1,3,5-triazine dihydrochloride] | 0/15** | 29 | 38 | – | – | – | – | – | – |
| Nc1nc(-c2cc(Cl)ccc2Cl)nc(N2CCOCC2)n1 [Reference Example 5, 2-Amino-4-(2,5-dichlorophenyl)-6-morpholino-1,3,5-triazine] | 0/18** | 58 | 45 | – | – | – | – | – | – |
| Nc1nc(-c2cc(Cl)ccc2Cl)nc(N2CCC(=O)CC2)n1 [Example 56, 2-Amino-4-(2,5-dichlorophenyl)-6-(4-oxo-1-piperidinyl)-1,3,5-triazine] | 0/15** | 38 | 37 | – | – | – | – | – | – |
| Nc1nc(-c2cc(Cl)ccc2Cl)nc(N2CCCC2)n1 [Example 30, 2-Amino-4-(2,5-dichlorophenyl)-6-pyrrolidino-1,3,5-triazine] | 0/18** | 45 | 31 | – | – | – | – | – | – |
| Nc1nc(-c2cc(Cl)ccc2Cl)nc(N2CCCC(O)C2)n1 (stereo not shown) [Example 37, 2-Amino-4-(2,5-dichlorophenyl)-6-(3-hydroxy-1-piperidinyl)-1,3,5-triazine] | 0/18** | 43 | 38 | – | – | – | – | – | – |
| Cl.Nc1nc(-c2cc(Cl)ccc2Cl)nc(N2CCC[C@H]2CO)n1 [Example 32, (S)-2-amino-4-(2,5-dichlorophenyl)-6-(2-hydroxymethyl-1-pyrrolidinyl)-1,3,5-triazine hydrochloride] | 0/18** | 62 | 60 | – | – | – | – | – | – |
| Cc1ccc(OCCN2CCN(c3nc(N)nc(-c4cc(Cl)ccc4Cl)n3)CC2)cc1 [Example 21, 2-Amino-4-(2,5-dichlorophenyl)-6-[4-[2-(4-methylphenoxy)ethyl]piperazin-1-yl]-1,3,5-triazine] | 0/10** | 29 | 10 | – | – | – | – | – | – |
